Assay results published in PMC4403932 (Journal of Medicinal Chemistry, 2015).
Values joined by “and” are separate entries in the source; they are usually repeats but may differ in a detail not shown here. Identical values can stand only once. “Also recorded” adds a separate entry of the source. Like-named read-outs stand apart in the source and are kept apart here.

Key:
CREBBP = molecular target: T1, CREBBP (Homo sapiens, UniProt Q92793); assay: Protein stability (thermal) shift assay, CREBBP; type: binding; conditions: compound 10 μM, protein 2 μM; average of triplicate; read-out: ΔTm Shift, CREBBP
T1 construct: small thermal shits (1.0–1.3 °C) for the bromodomain of CREBBP; made in house
T1 sequence (Q92793 1085-1192 limits assumed): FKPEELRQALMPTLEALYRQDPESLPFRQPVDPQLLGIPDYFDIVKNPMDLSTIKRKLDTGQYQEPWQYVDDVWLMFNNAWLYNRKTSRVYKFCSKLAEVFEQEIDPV

BRD2(1) = molecular target: T2, BRD2(1) (Homo sapiens, UniProt P25440); assay: Protein stability (thermal) shift assay, BRD2(1); type: binding; conditions: compound 10 μM, protein 2 μM; average of triplicate
T2 construct: Fragments were tested in a thermal shift assay against bromodomains of the BET subfamily; made in house
T2 sequence (P25440 74-180 limits assumed): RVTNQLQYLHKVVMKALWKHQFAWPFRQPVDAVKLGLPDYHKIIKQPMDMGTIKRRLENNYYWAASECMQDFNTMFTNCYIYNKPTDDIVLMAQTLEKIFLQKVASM

BRD9 bromodomain = molecular target: T3, BRD9 bromodomain (Homo sapiens, UniProt Q9H8M2); assay: NanoBRET assay, NanoLuc-BRD9 bromodomain / histone H3.3-HaloTag in HEK293 cells; type: cell-based; conditions: 0.005-33 μM, 18 h, read-out: cellular (apparent) IC50, displacement of NanoLuc-BRD9 bromodomain from histone H3.3
T3 construct: Q9H8M2-BRD amino acids 120–240; expressed in transfected cells; host or cells: HEK293
T3 sequence (Q9H8M2 120-240): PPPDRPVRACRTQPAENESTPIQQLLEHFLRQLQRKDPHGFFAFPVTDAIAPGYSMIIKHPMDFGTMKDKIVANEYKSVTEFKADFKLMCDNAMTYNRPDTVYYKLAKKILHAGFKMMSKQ
Procedure: Twenty hours post-transfection 2 × 10^4 cells were trypsinized, washed with PBS, and exchanged into media containing phenol red-free DMEM, 10% FBS in the absence (control sample), or the presence (experimental sample) of 100 nM NanoBRET 618 fluorescent ligand (Promega). Cell density was adjusted to 2 × 10^5 cells/mL and then replated in a 96-well assay white plate (Corning Costar no. 3917). At the time of replating compound 7d or 11 were added at a final concentration spanning from 0.005 to 33 μM and the plates were incubated for 18 h at 37 °C in the presence of 5% CO2. NanoBRET substrate (Promega) was added to both control and experimental samples at a final concentration of 10 μM. Readings were performed within 5 min using the CLARIOstar reader (BMG Lifetechnologies) equipped with 450/80 nm bandpass and 610 nm long-pass filters. A corrected BRET ratio was calculated and is defined as the ratio of the emission at 610 nm/450 nm for experimental samples (i.e., those treated with NanoBRET fluorescent ligand) subtracted by and the emission at 610 nm/450 nm for control samples (not treated with NanoBRET fluorescent). BRET ratios are expressed as milliBRET units (mBU), where 1 mBU corresponds to the corrected BRET ratio multiplied by 1000.

BRD4(1) = molecular target: T4, BRD4(1) (Homo sapiens, UniProt O60885); assay: Protein stability (thermal) shift assay, BRD4(1); type: binding
T4 construct: made in house

BRDT(2) = molecular target: T5, BRDT(2) (Homo sapiens, UniProt Q58F21); assay: Protein stability (thermal) shift assay, BRDT(2); type: binding; conditions: compound 10 μM, protein 2 μM; average of triplicate; read-out: ΔTm Shift, BRDT(2)
T5 construct: made in house

BRD9 = molecular target: T6, BRD9 (Homo sapiens, UniProt Q9H8M2); assay: Protein stability (thermal) shift assay, BRD9; type: binding
T6 construct: made in house
T6 sequence (Q9H8M2 136-240 limits assumed): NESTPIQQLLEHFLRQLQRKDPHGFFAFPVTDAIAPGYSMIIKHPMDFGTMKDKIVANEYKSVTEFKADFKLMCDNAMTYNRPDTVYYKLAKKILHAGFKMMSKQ

BRDT(1) = molecular target: T7, BRDT(1) (Homo sapiens, UniProt Q58F21); assay: Protein stability (thermal) shift assay, BRDT(1); type: binding; conditions: compound 10 μM, protein 2 μM; average of triplicate
T7 construct: made in house

PCAF = molecular target: T8, PCAF (Homo sapiens, UniProt Q92831); assay: Protein stability (thermal) shift assay, PCAF; type: binding; conditions: compound 10 μM, protein 2 μM; average of triplicate
T8 construct: representative BRDs from other structural subfamilies (family I, PCAF); made in house
T8 sequence (Q92831 723-827 limits assumed): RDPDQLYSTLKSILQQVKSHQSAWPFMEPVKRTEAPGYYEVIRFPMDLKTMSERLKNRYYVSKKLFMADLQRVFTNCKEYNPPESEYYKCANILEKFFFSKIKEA

BRD3(2) = molecular target: T9, BRD3(2) (Homo sapiens, UniProt Q15059); assay: Protein stability (thermal) shift assay, BRD3(2); type: binding; conditions: compound 10 μM, protein 2 μM; average of triplicate
T9 construct: made in house
T9 sequence (Q15059 306-415 limits assumed): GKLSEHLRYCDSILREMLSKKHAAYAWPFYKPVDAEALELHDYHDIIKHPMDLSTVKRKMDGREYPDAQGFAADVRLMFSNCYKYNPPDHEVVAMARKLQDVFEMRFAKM

HEK293 cells = assay: In vitro cytotoxicity (CellTiter-Glo); type: cell-based, human; conditions: cell viability, 0.005-33 μM
Procedure: Following NanoBRET substrate addition and NanoBRET measurements, to the same wells an equal volume of CellTiter-Glo reagent (Promega) was added and the plates were incubated for 30 min at room temperature. Total luminescence was measured, and relative compound toxicity was determined by comparing the RLUs (relative light units) of a sample containing DMSO vehicle (in the absence of compound 11) to the RLUs of the samples containing 0.005–33 μM compound 11.

BRD2(2) = molecular target: T10, BRD2(2) (Homo sapiens, UniProt P25440); assay: Protein stability (thermal) shift assay, BRD2(2); type: binding; conditions: compound 10 μM, protein 2 μM; average of triplicate
T10 construct: made in house
T10 sequence (P25440 344-453 limits assumed): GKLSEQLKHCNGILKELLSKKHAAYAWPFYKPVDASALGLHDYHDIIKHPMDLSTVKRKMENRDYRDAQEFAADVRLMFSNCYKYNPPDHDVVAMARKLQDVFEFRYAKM

BRD3(1) = molecular target: T11, BRD3(1) (Homo sapiens, UniProt Q15059); assay: Protein stability (thermal) shift assay, BRD3(1); type: binding; conditions: compound 10 μM, protein 2 μM; average of triplicate
T11 construct: Fragments were tested in a thermal shift assay against bromodomains of the BET subfamily; made in house
T11 sequence (Q15059 34-140 limits assumed): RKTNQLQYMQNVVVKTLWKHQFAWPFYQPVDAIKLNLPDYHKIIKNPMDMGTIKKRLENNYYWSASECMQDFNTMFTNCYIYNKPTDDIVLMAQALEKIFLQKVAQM

BAZ2B = molecular target: T12, BAZ2B (Homo sapiens, UniProt Q9UIF8); assay: Protein stability (thermal) shift assay, BAZ2B; type: binding; conditions: compound 10 μM, protein 2 μM; average of triplicate; read-out: ΔTm Shift, BAZ2BA
T12 construct: representative BRDs from other structural subfamilies (family I, PCAF); family III, CREBBP; family IV, BRD9; family V, BAZ2B; made in house
T12 sequence (Q9UIF8 2060-2164 limits assumed): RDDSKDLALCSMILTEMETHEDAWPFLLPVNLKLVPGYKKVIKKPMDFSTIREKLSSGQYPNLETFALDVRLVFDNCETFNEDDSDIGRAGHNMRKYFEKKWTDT

[1] = thermal shift, 10 μM compound, 2 μM protein, read-out: ΔTm

Row | ΔTm at 10 µM (CREBBP) [°C] | ΔTm at 10 µM (BRD2(1)) [°C] | IC50 (BRD9 bromodomain) | ΔTm at 10 µM (BRD4(1); [1]) [°C] | ΔTm at 10 µM (BRDT(2)) [°C] | ΔTm at 10 µM (BRD9; compound 10 μM, protein 2 μM, average of triplicate, read-out: ΔTm Shift, BRD9) [°C] | ΔTm at 10 µM (BRDT(1)) [°C] | ΔTm at 10 µM (PCAF) [°C] | ΔTm at 10 µM (BRD3(2)) [°C] | ΔTm at 10 µM (BRD2(2)) [°C] | ΔTm at 10 µM (BRD3(1)) [°C] | ΔTm at 10 µM (BAZ2B) [°C] | ΔTm at 10 µM (BRD4(1); compound 10 μM, protein 2 μM, average of triplicate, read-out: ΔTm Shift, BRD4(1)) [°C] | ΔTm at 10 µM (BRD9; [1]) [°C] | SMILES | cytotoxicity toward HEK293 cells (in words) (HEK293 cells)
1 | 2.9 | 2.5 | 3.5 µM | 3.2 | 1.8 | 3.6 | 0.0286 | -0.45 | 0.7 | 0.9 | 2.1 | 0.237 | – | – | COc1ccc(Br)cc1-c1nc(N)nc2[nH]cnc12 [Compound 7d, 2-Amino-6-(5-bromo-2-methoxyphenyl)-9H-purine] | not cytotoxic
2 | 3.6 | 2.8 | 0.48 µM and 0.477 µM | – | 4 | – | 1.7 | 0.9 | 5.4 | 4.3 | 3.7 | 0.37 | 5.3 | 6.5 | Nc1nc(-c2cc(Br)cc3c2OCC3)c2nc[nH]c2n1 [Compound 11, 2-Amino-6-(5-bromo-2,3-dihydrobenzo[b]furan-7-yl)-9H-purine] | did not observe any cytotoxicty; also recorded: not cytotoxic; also recorded: not toxic
